Earlier results in patent publication US20090098217A1, “COMPOSITIONS AND METHODS FOR PROMOTING THICKER HAIR” (priority 2007, published 2009).
Like-named read-outs stand apart in the source and are kept apart here.

Experiments:
5-alpha-reductase [1] = details: in vitro
5-alpha-reductase [2] = details: 5 or 10 mg of zinc injected in rat prostate

In the case of `[Zn]` [zinc], the “conversion of testosterone to DHT” value (5-alpha-reductase [1]; low concentrations of zinc) is listed as “enhance conversion of testosterone to DHT”, the “conversion of testosterone to DHT” value (5-alpha-reductase [1]; mM concentrations of zinc) is listed as “inhibited it” and the 5-alpha-reductase activity (5-alpha-reductase [2]) is listed as “significantly reduced 5-alpha-reductase activity”.
